23 compounds from patent US12448388B2, “PRMT5 inhibitors and uses thereof” (Gilead Sciences, Inc., priority 2023, dated 2025) can be followed below.

Where two headings read alike, the source gives them in different places.

This assay has as its system HCT116 MTAP-deleted cell lines. The assay can be described thus: Cell viability assay (CellTiter-Glo, 7 days), HCT116 MTAP-deleted. It is filed as cell-based. As to conditions: Homo sapiens, HCT-116, HCT116 MTAP-deleted, class symbols, read-out: CC50. As for the experimental part: Control compounds were analyzed in parallel each time for quality control. In Brief, on Day -1, a serial dilution of stock compounds in DMSO was performed using BioMek liquid handlers and dispensed using Echo acoustic dispenser into 384 well plates. Both tool compounds and sample compounds were spotted in the same plate for a dose response of PRMT5 inhibitors. Compound plates were stored as frozen until the cells were ready for seeding. […] After equilibrating the plate in room temperature, the cells were incubated for 7 days inside the sealed incubator set at 37° C. with 90% humidity and 5% CO2. On Day 7, the viability of cells was measured using a CTG assay kit (CellTitre-Glo;Promega cat no. G7573). Shortly, 40 μl per well of luminescent cell viability assay reagent were dispensed using EL460 liquid dispenser 5 μl cassette. CTG luminescence signal was measured using an EnVision plate reader (PerkinElmer) in accordance with manufacturer's instruction. […] Selectivity with * is artificially high due to limited solubility of the compound hampering accurate measurement of WT CC50.

As a reminder, the CC50 is the concentration at which the toxic effect on the cells reaches its halfway point. For the compound `Nc1nc2cc(F)c(C(=O)N3CCC[C@@H]4Cc5cc(C(F)(F)F)ccc5[C@@H]43)cc2n2cncc12` (racemic) [Ff-310, Rac-(4-amino-7-fluoroimidazo[1,5-a]quinoxalin-8-yl)((4aR,9bR)-7-(trifluoromethyl)-2,3,4,4a,5,9b-hexahydro-1H-indeno[1,2-b]pyridin-1-yl)methanone], the half-maximal cytotoxic concentration (CC50) (cell viability) was below 0.1 µM. The same measure, in the same setting: to `Nc1nc2cc(F)c(C(=O)N3CCC[C@@H]4Cc5nc(C(F)(F)F)ccc5[C@@H]43)cc2n2cncc12` (racemic) [Ff-314, Rac-(4-amino-7-fluoroimidazo[1,5-a]quinoxalin-8-yl)((4bR,8aR)-2-(trifluoromethyl)-4b,6,7,8,8a,9-hexahydro-5H-cyclopenta[1,2-b:3,4-b′]dipyridin-5-yl)methanone] belongs below 0.1 µM; to `C[C@@H]1C[C@@H]2CCc3cc(C(F)(F)F)ccc3[C@@H]2N(C(=O)c2cc3c(cc2F)nc(N)c2cncn23)C1` (racemic) [Ff-322, Rac-(4-amino-7-fluoroimidazo[1,5-a]quinoxalin-8-yl)((3R,4aS,10bR)-3-methyl-8-(trifluoromethyl)-3,4,4a,5,6,10b-hexahydrobenzo[h]quinolin-1(2H)-yl)methanone], below 0.1 µM. For the compound `C[C@@H]1C[C@@H]2OCc3nc(C(F)(F)F)ccc3[C@@H]2N(C(=O)c2cc3c(cc2F)nc(N)c2cncn23)C1` (racemic) [Ff-323, Rac-(4-amino-7-fluoroimidazo[1,5-a]quinoxalin-8-yl)((3R,4aS,10bS)-3-methyl-8-(trifluoromethyl)-2,3,4,4a,6,10b-hexahydro-1H-pyrano[3,2-b:5,4-b′]dipyridin-1-yl)methanone], the CC50 (cell viability) is below 0.1 µM. On to `Nc1nc2cc(F)c(C(=O)N3CCC[C@@H]4Oc5cc(OC(F)(F)F)ccc5[C@@H]43)cc2n2cncc12` (racemic) [Ff-331, Rac-(4-amino-7-fluoroimidazo[1,5-a]quinoxalin-8-yl)((4aS,9bS)-7-(trifluoromethoxy)-3,4,4a,9b-tetrahydrobenzofuro[3,2-b]pyridin-1(2H)-yl)methanone], for which, where the note is “cell viability”, the CC50 is below 0.1 µM.

In the case of `Nc1nc2cc(F)c(C(=O)N3CCC[C@@H]4Oc5cc(OC(F)(F)F)c(F)cc5[C@@H]43)cc2n2cncc12` (racemic) [Ff-333, Rac-(4-amino-7-fluoroimidazo[1,5-a]quinoxalin-8-yl)((4aS,9bS)-8-fluoro-7-(trifluoromethoxy)-3,4,4a,9b-tetrahydrobenzofuro[3,2-b]pyridin-1(2H)-yl)methanone], for the setting “cell viability”, the CC50 is below 0.1 µM.

In the case of `Cc1ncc2c(N)nc3cc(Cl)c(C(=O)N4CCC[C@@H]5Oc6nc(C(F)(F)F)ccc6[C@@H]54)cc3n12` (racemic) [Ff-334, Rac-4-amino-7-chloro-1-methylimidazo[1,5-a]quinoxalin-8-yl)((4aS,9bS)-7-(trifluoromethyl)-3,4,4a,9b-tetrahydrofuro[2,3-b:4,5-b′]dipyridin-1(2H)-yl)methanone], the CC50 (cell viability) was below 0.1 µM.

As to `Nc1nc2cc(F)c(C(=O)N3CCC[C@@H]4Oc5c(ccc(Cl)c5F)[C@@H]43)cc2n2cncc12` (racemic) [Ff-335, Rac-((4-amino-7-fluoroimidazo[1,5-a]quinoxalin-8-yl)((4aS,9bS)-7-chloro-6-fluoro-3,4,4a,9b-tetrahydrobenzofuro[3,2-b]pyridin-1(2H)-yl)methanone], the CC50 (cell viability) was below 0.1 µM. Still for that read-out and setting: to `Nc1nc2cnc(C(=O)N3CCC[C@@H]4Oc5cc(OC(F)(F)F)c(F)cc5[C@@H]43)cc2n2cncc12` (racemic) [Ff-338, Rac-(4-aminoimidazo[1,5-a]pyrido[3,4-e]pyrazin-8-yl)((4aS,9bS)-8-fluoro-7-(trifluoromethoxy)-3,4,4a,9b-tetrahydrobenzofuro[3,2-b]pyridin-1(2H)-yl)methanone] belongs below 0.1 µM.

`Nc1nc2ccc(C(=O)N3CCC[C@@H]4Oc5cc(OC(F)(F)F)c(F)cc5[C@@H]43)cc2n2cncc12` (racemic) [Ff-339, Rac-(4-aminoimidazo[1,5-a]quinoxalin-8-yl)((4aS,9bS)-8-fluoro-7-(trifluoromethoxy)-3,4,4a,9b-tetrahydrobenzofuro[3,2-b]pyridin-1(2H)-yl)methanone]: the CC50 (cell viability) was below 0.1 µM. The same measure, in the same setting: to `Nc1nc2cc(F)c(C(=O)N3CCC[C@@H]4Oc5cc(OC(F)(F)F)cc(F)c5[C@@H]43)cc2n2cncc12` (racemic) [Ff-350, Rac-(4-amino-7-fluoroimidazo[1,5-a]quinoxalin-8-yl)((4aS,9bS)-9-fluoro-7-(trifluoromethoxy)-3,4,4a,9b-tetrahydrobenzofuro[3,2-b]pyridin-1(2H)-yl)methanone] belongs below 0.1 µM.

For the compound `Nc1nc2cc(F)c(C(=O)N3CC[C@H]4C[C@@H]3c3ccc(OC(F)(F)F)cc3O4)cc2n2cncc12` (racemic) [Ff-372, Rac-(4-amino-7-fluoroimidazo[1,5-a]quinoxalin-8-yl)((2S,6R)-9-(trifluoromethoxy)-3,4-dihydro-2H-2,6-methanobenzo[b][1,5]oxazocin-5(6H)-yl)methanone], the 50% cytotoxic concentration (CC50) (cell viability assay) is below 0.1 µM. Same read-out and setting: to `Nc1nc2cnc(C(=O)N3CC[C@H]4C[C@@H]3c3ccc(OC(F)(F)F)cc3O4)cc2n2cncc12` (racemic) [Ff-373, Rac-(4-aminoimidazo[1,5-a]pyrido[3,4-e]pyrazin-8-yl)((2S,6R)-9-(trifluoromethoxy)-3,4-dihydro-2H-2,6-methanobenzo[b][1,5]oxazocin-5(6H)-yl)methanone] belongs below 0.1 µM; to `CC1(C)C[C@@H]2Oc3nc(C(F)(F)F)ccc3[C@@H]2N(C(=O)c2cc3c(cc2F)nc(N)c2cncn23)C1` (racemic) [Ff-384, Rac-(4-amino-7-fluoroimidazo[1,5-a]quinoxalin-8-yl)((4aS,9bS)-3,3-dimethyl-7-(trifluoromethyl)-3,4,4a,9b-tetrahydrofuro[2,3-b:4,5-b′]dipyridin-1(2H)-yl)methanone], below 0.1 µM; to `Cc1ncn2c1c(N)nc1cc(F)c(C(=O)N3CC(C)(C)C[C@@H]4Oc5nc(C(F)(F)F)ccc5[C@@H]43)cc12` (racemic) [Ff-385, Rac-(4-amino-7-fluoro-3-methylimidazo[1,5-a]quinoxalin-8-yl)((4aS,9bS)-3,3-dimethyl-7-(trifluoromethyl)-3,4,4a,9b-tetrahydrofuro[2,3-b:4,5-b′]dipyridin-1(2H)-yl)methanone], below 0.1 µM. The same measure, in the same setting: then `Cc1ncn2c1c(N)nc1cnc(C(=O)N3C[C@H](C)C[C@@H]4CCc5cc(C(F)(F)F)ccc5[C@@H]43)cc12` (racemic) [Ff-462, Rac-(4-amino-3-methylimidazo[1,5-a]pyrido[3,4-e]pyrazin-8-yl)((3R,4aS,10bR)-3-methyl-8-(trifluoromethyl)-3,4,4a,5,6,10b-hexahydrobenzo[h]quinolin-1(2H)-yl)methanone], with 0.1 to 1 µM; and `CN(C(=O)c1cc2c(cc1F)nc(N)c1cncn12)[C@@H]1COc2cc([C@@H]3C[C@H]3c3ccccc3)ccc21` (racemic) [Ff-473, Trans-4-amino-7-fluoro-N-methyl-N-((3S)-6-(2-phenylcyclopropyl)-2,3-dihydrobenzofuran-3-yl)imidazo[1,5-a]quinoxaline-8-carboxamide], with below 0.1 µM; and `CN(C(=O)c1cc2c(cc1F)nc(N)c1cncn12)[C@@H]1COc2cc([C@@H]3C[C@H]3C3CC3)ccc21` (racemic) [Ff-474, Trans-N-((3S)-6-([1,1′-bi(cyclopropan)]-2-yl)-2,3-dihydrobenzofuran-3-yl)-4-amino-7-fluoro-N-methylimidazo[1,5-a]quinoxaline-8-carboxamide], with below 0.1 µM. On the same count and under the same terms, then `CN(C(=O)c1cc2c(cc1F)nc(N)c1cncn12)[C@@H]1COc2cc(C3CCOC3)ccc21` (mixture of isomers) [Ff-484, Rac-4-amino-7-fluoro-N-methyl-N-((3S)-6-(tetrahydrofuran-3-yl)-2,3-dihydrobenzofuran-3-yl)imidazo[1,5-a]quinoxaline-8-carboxamide], with below 0.1 µM; and `Cc1ncc2c(N)nc3cnc(C(=O)N4C(C)CCC5Oc6cc(C(F)(F)F)ccc6C54)cc3n12` (racemic) [Ff-586, Rac-(4-amino-1-methylimidazo[1,5-a]pyrido[3,4-e]pyrazin-8-yl)(2-methyl-7-(trifluoromethyl)-3,4,4a,9b-tetrahydrobenzofuro[3,2-b]pyridin-1(2H)-yl)methanone], with below 0.1 µM; and `Cc1ncn2c1c(N)nc1cnc(C(=O)N3C[C@H](F)CC4Oc5cc(C(F)(F)F)ccc5C43)cc12` (mixture of isomers) [Ff-650, Rac-(4-amino-3-methylimidazo[1,5-a]pyrido[3,4-e]pyrazin-8-yl)((3R,4aS,9bS)-3-fluoro-7-(trifluoromethyl)-3,4,4a,9b-tetrahydrobenzofuro[3,2-b]pyridin-1(2H)-yl)methanone], with below 0.1 µM. With `Nc1nc2cnc(C(=O)N3CC4(CCC4)C[C@@H]4Oc5cc(C(F)(F)F)ccc5[C@@H]43)cc2n2cncc12` (racemic) [Ff-688, Rac-(4-aminoimidazo[1,5-a]pyrido[3,4-e]pyrazin-8-yl)((4aS,9bS)-7-(trifluoromethyl)-4a,9b-dihydro-2H-spiro[benzofuro[3,2-b]pyridine-3,1′-cyclobutan]-1(4H)-yl)methanone], under “cell viability assay”, the 50% cytotoxic concentration (CC50) is below 0.1 µM. Still for that read-out and setting: to `Cc1ncn2c1c(N)nc1cc(Cl)c(C(=O)N3CCC[C@@H]4Oc5nc(C(F)(F)F)ccc5[C@@H]43)cc12` (racemic) [Fg-29, Rac-(4-amino-7-chloro-3-methylimidazo[1,5-a]quinoxalin-8-yl)((4aS,9bS)-7-(trifluoromethyl)-3,4,4a,9b-tetrahydrofuro[2,3-b:4,5-b′]dipyridin-1(2H)-yl)methanone] belongs below 0.1 µM.
